Entries after “also recorded” stand apart in the source; their conditions may differ.
Experiments:
[1] = system: rat subarachnoid haemorrhage model; assay: Rat SAH model, intraperitoneal treatment, myograph of basilar arteries; assay type: in vivo; details: SAH + i.p. treatment at 6 and 24 hours
Protocol: For contractility measurements, both incubated BAs (ex vivo) and BAs after surgical procedure (in vivo) were cut into segments and mounted on a pair of metal wires (40 μm) in a myograph bath. The arteries from OC were mounted the same way after 48 hours in media. One wire was attached to a micro-meter screw which allows for fine adjustments of the distance between the wires, controlling the vascular tone.
The segments were equilibrated in physiological buffer aerated with 95% O2/5% CO2, pH of 7.4, temperature set at 37° C. and the wires were separated for isometric pretension at 2 Nm^−1. The arterial segments were exposed two or three times with 60 mM K^+, by exchanging the buffer with a 60 mM K^+ buffer solution. To maintain equal osmolarity, a proportional amount of Na^+ had been removed from the buffer. An absolute cut-off was set at 2.0 mN K^+max for inclusion of arterial segments from rats that underwent the surgical procedure. Endothelium function was evaluated with the addition of 5-HT (3.10^−7 M) followed by carbachol (10^−5 M). For arteries from the OC the protocol was as followed: first a cumulative concentration-response curve to sarafotoxin 6C (S6c, 10^−14-10^−7 M), followed by a concentration-response curve to endothelin-1 (ET-1, 10^−14-10^−7 M). […]

[2] = system: rat subarachnoid haemorrhage model; assay: Rotating pole test after SAH, intrathecal treatment; assay type: in vivo; details: SAH + i.t. treatment
Protocol: The intrathecal (i.t.) treatment volumes were estimated for a cerebrospinal fluid (CSF) volume of approximately 90 μL (21) and the total dose was administered as three treatments (4 hours, 10 hours and 24 hours) through the PinPort in the ICP catheter placed in the cisterna magna during the surgical procedure. The first and third injections were given under fixation of the rat. Since the treatment 10 hours post-surgery was administered by a single researcher, the rats were briefly anaesthetised with isoflurane 3.5-4% (maintained at 1.75-2%) in atmospheric air/O2 (70%/30%) using a facemask, to prevent sudden movements of the rat. […]
Gross sensorimotor function was evaluated using a rotating pole test, including a baseline evaluation on the day before induction of SAH. Briefly, movement across a 10-rpm rotating pole (45 mm diameter, 150 cm length) was evaluated with a cage at the end that contain the rat's own bedding material (“smells like home”). Rat performance was scored according to the following definitions: Low, the animal is unable to cross the pole without falling off; High, the animal can traverse the entire pole without falling off. […] Pre-SAH and on day 1 and 2 after surgery, each animal was scored twice for left and right rotation respectively, i.e. 4 counts per animal. […]

[3] = system: rat subarachnoid hemorrhage model; assay: In vivo SAH, intraperitoneal trametinib, ET-1 concentration-response in BAs (Example 11)
Protocol: Thirty-two rats were operated for this study. Animals were treated intraperitoneally with 250 μl/body weight of a 1 mM solution of trametinib (Selleckchem), yielding a final dose of 95 μg/body weight, diluted in 10% cremophor and 10% PEG400 in NaCl. Animals in the vehicle and sham group were treated with 250 μl/body weight 10% cremophor and 10% PEG400 in NaCl. Treatment was intraperitoneally administered either at 1 h and 24 h or 6 h and 24 h post surgery. Animals were terminated 48 h after surgery by CO2 anesthesia and decapitation.

[4] = system: rat middle cerebral arteries (ETB receptor); assay: 48 h in vitro organ culture of MCAs, wire myography (S6c, ET-1); assay type: cell-based
Protocol: MCAs from naïve rats were dissected and segments (1.5 mm) were incubated for 48 h in Dulbecco's modified Eagle's medium contained L-glutamine (584 mg/L) supplemented with penicillin (100 U/ml) and streptomycin ([…]) at humidified 5% CO2 atmosphere. Before incubation, 4 different concentrations of trametinib (5 μM, 1 μM, 0.1 μM or 0.03 μM), dissolved in 0.1% dimethyl sulfoxide (DMSO) in NaCl, or 0.1% DMSO in NaCl (vehicle) was added.

CC(=O)Nc1cccc(-n2c(=O)n(C3CC3)c(=O)c3c(Nc4ccc(I)cc4F)n(C)c(=O)c(C)c32)c1 [trametinib]
ET-1 contractility (at 10^-9.5 M) vs SAH+i.p. vehicle [1]: significant decrease in contractility | contractile response of BAs to 60 mM K+ [1]: 3.03±0.19 Nm-1 | neurological assessment scores (rotating pole test) [2]: Improved neurological assessment scores | rotating pole Score48 h (% high score count/total score count) ([2]; 48 hours post-SAH, 10 rpm): 96% | increased ET-1-induced concentration-response curve in BAs after SAH ([3]; i.p. 1 mM at 1 and 24 h post-SAH): significantly inhibited | increased ET-1-induced concentration-response curve in BAs after SAH ([3]; i.p. 1 mM at 6 and 24 h post-SAH): significantly inhibited | increased ET-1-induced vasoconstriction of MCAs ([4]; 0.1 μM, 48 h OC): total blockage of the ETB receptor subtype response; also recorded: significantly inhibit; also recorded: inhibitory effect | S6c-induced contraction of MCAs ([4]; 48 h OC, 5, 1, 0.1 or 0.03 μM, concentration-dependent): significantly inhibited

Source: patent publication US20220273660A1, “MEK INHIBITOR FOR TREATMENT OF STROKE” (EDVINCE AB, priority 2019, published 2022)
